Experimental findings from ChEMBL document CHEMBL1133374, “Chemical synthesis and cytotoxicity of some azinomycin analogues devoid of the 1-azabicyclo[3.1.0]hexane subunit” (Bioorg Med Chem Lett, 2000) are described below.

A word on the IC50: it is the concentration needed to halve the response being measured. Read a low IC50 as greater potency in that assay.

Type in all cases: functional, cell-based
The test system of assay [1] is SK-OV-3. Put plainly: The compound was evaluated for the cytotoxicity against human SKOV-3 (ovarian) tumor cell lines.
The test system of assay [2] is A2780. Put plainly: The compound was evaluated for the cytotoxicity against human A2780 (ovarian) tumor cell lines.
In assay [3] the test system is HT-29. Put plainly: The compound was evaluated for the cytotoxicity against human HT-29 (colon) tumor cell lines.
Assay [4] concerns CH1. Put plainly: The compound was evaluated for the cytotoxicity against human CH1 (ovarian) tumor cell lines.
The subject of assay [5] is A2780cisR. Put plainly: The compound was evaluated for the cytotoxicity against human A2780cisR (ovarian) tumor cell lines.

For `C[C@@]1([C@H](OC(=O)c2cccc3ccccc23)C(N)=O)CO1`, the IC50 in assay [1] is 5100 nM; in assay [2], 440 nM; in assay [3] (Homo sapiens, HT-29), 2150 nM; in assay [4], 550 nM; in assay [5] (Homo sapiens, A2780cisR), 1100 nM.

Take `COc1cc(C(=O)O[C@H](C(N)=O)[C@@]2(C)CO2)c2cccc(C)c2c1`: the IC50 was 2300 nM in assay [1]; 58 nM in assay [2]; 610 nM in assay [3] (Homo sapiens, HT-29); 62 nM in assay [4]; 155 nM in assay [5] (Homo sapiens, A2780cisR).

For the molecule CISPLATIN, the values for the IC50 in assay [3] (ht-29) and in assay [5] (a2780cisr) were 1700 nM and 3000 nM, respectively.

For `COc1cc(C(=O)O[C@H](C(N)=O)[C@]2(C)CO2)c2cccc(C)c2c1`, the IC50 in assay [1] was 1250 nM; in assay [2], less than 50 nM; in assay [3] (Homo sapiens, HT-29) it was 330 nM; in assay [4], less than 50 nM; in assay [5] (Homo sapiens, A2780cisR), 76 nM.

For `C[C@@]1([C@H](OC(=O)c2ccc3ccccc3c2)C(N)=O)CO1`, the IC50 came to 13000 nM in assay [1]; 390 nM in assay [2]; 2600 nM in assay [3] (Homo sapiens, HT-29); 170 nM in assay [4]; 1350 nM in assay [5] (Homo sapiens, A2780cisR).

Turning to `CC1([C@H](OC(=O)c2cccc3ccccc23)C(N)=O)CC1`, the IC50 in assay [1] was more than 25000 nM; in assay [2], more than 25000 nM; in assay [3] (Homo sapiens, HT-29), more than 25000 nM; in assay [4] it was more than 25000 nM; in assay [5] (Homo sapiens, A2780cisR), more than 25000 nM.

On to `C[C@@]1([C@H](OC(=O)c2ccccc2)C(N)=O)CO1`, for which the IC50 in assay [1] was more than 25000 nM; in assay [2], 20500 nM; in assay [3] (Homo sapiens, HT-29), more than 25000 nM; in assay [4], more than 25000 nM; in assay [5] (Homo sapiens, A2780cisR) it was more than 25000 nM.

On to `CCOC(=O)[C@@H](NC(=O)[C@@H](OC(=O)c1ccc(C)c2cc(OC)ccc12)[C@]1(C)CO1)C(C)C`, for which the IC50 in assay [1] was found to be 2950 nM; in assay [2] it was 350 nM; in assay [3] (Homo sapiens, HT-29) it was 2250 nM; in assay [4] it was 315 nM; in assay [5] (Homo sapiens, A2780cisR) it was 560 nM.

For `C[C@@]1([C@H](OC(=O)c2cnc3ccccc3n2)C(N)=O)CO1`, the IC50 is more than 25000 nM in assay [1]; more than 25000 nM in assay [2]; more than 25000 nM in assay [3] (Homo sapiens, HT-29); more than 25000 nM in assay [4]; more than 25000 nM in assay [5] (Homo sapiens, A2780cisR).

Regarding `CO[C@@]12[C@H](COC(N)=O)C3=C(C(=O)C(C)=C(N)C3=O)N1C[C@@H]1N[C@@H]12` [MITOMYCIN], the IC50 in assay [1] came out at 200 nM; in assay [2], 50 nM; in assay [3] (Homo sapiens, HT-29), 40 nM; in assay [4], 40 nM; in assay [5] (Homo sapiens, A2780cisR) it was 60 nM.

With `CCOC(=O)CNC(=O)[C@@H](OC(=O)c1cc(OC)cc2c(C)cccc12)[C@]1(C)CO1`, the IC50 came to 7300 nM in assay [1]; 340 nM in assay [2]; 2250 nM in assay [3] (Homo sapiens, HT-29); 260 nM in assay [4]; 830 nM in assay [5] (Homo sapiens, A2780cisR).

Consider `CCOc1cc(C(=O)O[C@H](C(N)=O)[C@]2(C)CO2)c2cccc(C)c2c1`, for which the IC50 came out at 12000 nM in assay [1]; 1800 nM in assay [2]; 4300 nM in assay [3] (Homo sapiens, HT-29); 1400 nM in assay [4]; 3500 nM in assay [5] (Homo sapiens, A2780cisR).
